# Patent US9487749B2 (priority 2009, dated 2016)
# “And” between values parts separate entries of the source, which are not always exact repeats. Equal entries are not always repeated.
# System: Lactobacillus acidophilus
# Assay: Growth of Lactobacillus acidophilus in Acidophilus milk fortified with MSM
# Format: cell-based
# Source text: 31, 2013. […] The Acidophilus milk was low fat (Darigold).
smiles,measurement,setting,value
"CS(C)(=O)=O [MSM, Methylsulfonylmethane]",peak growth,0.5% MSM,10.72 logs
same,log growth lower than control,"0.5% MSM, listed as order: Day 14, Day 28",0.74 logs and 1.00 logs
same,peak growth,5.0% MSM,10.89 log
same,log increase in growth within the first 8 hours (duplicates),[…] MSM,2.27 logs
same,peak growth,[…] MSM,10.59 logs
same,log growth lower than control,"[…] MSM, Day 28",0.68 logs
same,Growth of Lactobacillus acidophilus in Milk fortified with MSM average,"0.50% MSM, Day 7",10.68 log
same,Growth of Lactobacillus acidophilus in Milk fortified with MSM average,"0.50% MSM, Day 14",6.22 log
same,Log Growth of Lactobacillus acidophilus in Milk fortified with MSM,"0.50% MSM, Day 21",5.37 log
same,Growth of Lactobacillus acidophilus in Milk fortified with MSM average,"0.50% MSM, Day 21",5.37 log
same,Growth of Lactobacillus acidophilus in Milk fortified with MSM average,"0.50% MSM, Day 28",3.00 log
same,Growth of Lactobacillus acidophilus in Milk fortified with MSM average,"0.50% MSM, hour 0",6.98 log
same,Log Growth of Lactobacillus acidophilus in Milk fortified with MSM,"0.50% MSM, hour 8",9.06 log and 9.00 log
same,Growth of Lactobacillus acidophilus in Milk fortified with MSM average,"0.50% MSM, hour 8",9.03 log
same,Growth of Lactobacillus acidophilus in Milk fortified with MSM average,"0.50% MSM, hour 24",9.38 log
same,Log Growth of Lactobacillus acidophilus in Milk fortified with MSM,"0.50% MSM, hour 32",9.12 log
same,Growth of Lactobacillus acidophilus in Milk fortified with MSM average,"0.50% MSM, hour 32",9.16 log
same,Log Growth of Lactobacillus acidophilus in Milk fortified with MSM,"0.50% MSM, hour 48",8.55 log and 8.69 log
same,Growth of Lactobacillus acidophilus in Milk fortified with MSM average,"0.50% MSM, hour 48",8.62 log
same,Log Growth of Lactobacillus acidophilus in Milk fortified with MSM,"0.50% MSM, hour 56",8.77 log and 8.69 log
same,Growth of Lactobacillus acidophilus in Milk fortified with MSM average,"0.50% MSM, hour 56",8.73 log
same,Log Growth of Lactobacillus acidophilus in Milk fortified with MSM,"0.50% MSM, hour 72",8.56 log and 8.67 log
same,Growth of Lactobacillus acidophilus in Milk fortified with MSM average,"0.50% MSM, hour 72",8.62 log
same,Growth of Lactobacillus acidophilus in Milk fortified with MSM average,"0.50% MSM, hour 80",9.72 log
same,Growth of Lactobacillus acidophilus in Milk fortified with MSM average,"0.50% MSM, hour 96",10.09 log
same,Growth of Lactobacillus acidophilus in Milk fortified with MSM average,"0.50% MSM, hour 104",9.50 log
same,Growth of Lactobacillus acidophilus in Milk fortified with MSM average,"5.00% MSM, Day 7",10.71 log
same,Growth of Lactobacillus acidophilus in Milk fortified with MSM average,"5.00% MSM, Day 14",8.04 log
same,Log Growth of Lactobacillus acidophilus in Milk fortified with MSM,"5% MSM, Day 21",5.64 log and 5.48 log
same,Growth of Lactobacillus acidophilus in Milk fortified with MSM average,"5.00% MSM, Day 21",5.56 log
same,Log Growth of Lactobacillus acidophilus in Milk fortified with MSM,"5% MSM, Day 28",2.52 log
same,Growth of Lactobacillus acidophilus in Milk fortified with MSM average,"5.00% MSM, Day 28",2.52 log
same,Log Growth of Lactobacillus acidophilus in Milk fortified with MSM,"5% MSM, hour 0",6.56 log and 6.47 log
same,Growth of Lactobacillus acidophilus in Milk fortified with MSM average,"5.00% MSM, hour 0",6.52 log
same,Growth of Lactobacillus acidophilus in Milk fortified with MSM average,"5.00% MSM, hour 8",8.91 log
same,Growth of Lactobacillus acidophilus in Milk fortified with MSM average,"5.00% MSM, hour 24",9.29 log
same,Growth of Lactobacillus acidophilus in Milk fortified with MSM average,"5.00% MSM, hour 32",9.26 log
same,Log Growth of Lactobacillus acidophilus in Milk fortified with MSM,"5% MSM, hour 48",8.78 log and 8.72 log
same,Growth of Lactobacillus acidophilus in Milk fortified with MSM average,"5.00% MSM, hour 48",8.75 log
same,Log Growth of Lactobacillus acidophilus in Milk fortified with MSM,"5% MSM, hour 56",8.88 log and 8.7 log
same,Growth of Lactobacillus acidophilus in Milk fortified with MSM average,"5.00% MSM, hour 56",8.79 log
same,Log Growth of Lactobacillus acidophilus in Milk fortified with MSM,"5% MSM, hour 72",8.75 log and 8.63 log
same,Growth of Lactobacillus acidophilus in Milk fortified with MSM average,"5.00% MSM, hour 72",8.69 log
same,Growth of Lactobacillus acidophilus in Milk fortified with MSM average,"5.00% MSM, hour 80",9.79 log
same,Growth of Lactobacillus acidophilus in Milk fortified with MSM average,"5.00% MSM, hour 96",10.20 log
same,Growth of Lactobacillus acidophilus in Milk fortified with MSM average,"5.00% MSM, hour 104",9.56 log
same,Growth of Lactobacillus acidophilus in Milk fortified with MSM average,"[…] MSM, Day 7",10.50 log
same,Growth of Lactobacillus acidophilus in Milk fortified with MSM average,"[…] MSM, Day 14",7.33 log
same,Growth of Lactobacillus acidophilus in Milk fortified with MSM average,"[…] MSM, Day 21",5.465 log
same,Growth of Lactobacillus acidophilus in Milk fortified with MSM average,"[…] MSM, Day 28",3.325 log
same,Growth of Lactobacillus acidophilus in Milk fortified with MSM average,"[…] MSM, hour 0",6.69 log
same,Growth of Lactobacillus acidophilus in Milk fortified with MSM average,"[…] MSM, hour 8",9.02 log
same,Log Growth of Lactobacillus acidophilus in Milk fortified with MSM,"[…] MSM, hour 24",9.01 log
same,Growth of Lactobacillus acidophilus in Milk fortified with MSM average,"[…] MSM, hour 24",9.13 log
same,Growth of Lactobacillus acidophilus in Milk fortified with MSM average,"[…] MSM, hour 32",9.09 log
same,Growth of Lactobacillus acidophilus in Milk fortified with MSM average,"[…] MSM, hour 48",8.85 log
same,Growth of Lactobacillus acidophilus in Milk fortified with MSM average,"[…] MSM, hour 56",8.76 log
same,Growth of Lactobacillus acidophilus in Milk fortified with MSM average,"[…] MSM, hour 72",8.66 log
same,Growth of Lactobacillus acidophilus in Milk fortified with MSM average,"[…] MSM, hour 80",9.74 log
same,Growth of Lactobacillus acidophilus in Milk fortified with MSM average,"[…] MSM, hour 96",10.25 log
same,Growth of Lactobacillus acidophilus in Milk fortified with MSM average,"[…] MSM, hour 104",9.63 log
same,"log increase in growth, hour 0 to hour 8","milk fortified with MSM (all concentrations), minimum",≥ 1.73 log
same,increase over Acidophilus milk growth at Day 14,milk fortified with MSM (concentrations not given),0.86 logs and 1.3 logs
